Reference: patent US20130289108A1, “Palladium-Copper Catalysts for the Homogeneous Selective Oxidation of Thiol Groups” (priority 2011, published 2013)
Marks after values point to notes of the source that are not given here.

Test system: male rats with cytopenia
Experiment: Hemostimulating activity: general analysis of the blood of male rats with cyclophosphan cytopenia
Type: in vivo
[1] = 3 days after cyclophosphan 120 mg/kg
[2] = 7 days after cyclophosphan 120 mg/kg
[3] = 14 days after cyclophosphan 120 mg/kg

Row | SMILES | Erythrocytes [1] | Leucocytes [1] | Lymphocytes [1] [%] | Reticulocytes [1] [%] | Segmented neutrophils [1] [%] | Erythrocytes [2] | Leucocytes [2] | Lymphocytes [2] [%] | Reticulocytes [2] [%] | Segmented neutrophils [2] [%] | Erythrocytes [3] | Leucocytes [3] | Lymphocytes [3] [%] | Reticulocytes [3] [%] | Segmented neutrophils [3] [%]
1 | O=C([O-])[O-].[Li+].[Li+] [preparation 3, lithium carbonate] | 3.4 ± 0.29 10^12/l | 3.22 ± 0.11* 10^9/l | 49.7 ± 1.6 | 1.1 ± 0.1 | 31 ± 1.7 | 3.4 ± 0.29 10^12/l | 3.22 ± 0.11* 10^9/l | 49.7 ± 1.6 | 1.1 ± 0.1 | 31 ± 1.7 | 4.7 ± 0.27 10^12/l | 5.2 ± 0.26** 10^9/l | 70.3 ± 0.9 | 1.3 ± 0.3 | 15.0 ± 2.6
2 | CC(=O)N[C@@H](CSSC[C@H](NC(C)=O)C(=O)O)C(=O)O [preparation 4, N-acetyl-L-cysteine disulfide] | 3.2 ± 0.33 10^12/l | 3.47 ± 0.08* 10^9/l | 52.5 ± 1.3 |  | 31 ± 1.8 | 3.2 ± 0.33 10^12/l | 3.47 ± 0.08* 10^9/l | 52.5 ± 1.3 |  | 31 ± 1.8 | 4.1 ± 0.21 10^12/l | 5.1 ± 0.22** 10^9/l | 71.0 ± 1.6 | 1.2 ± 0.4 | 13.6 ± 1.9
